What all share (assay): Kinase profiling screen (radioactive filter-binding assay)
What all share (type): biochemical

In one test the target is T1, DYRK2 (Homo sapiens, UniProt Q92630).
T1 sequence (Q92630 1-601): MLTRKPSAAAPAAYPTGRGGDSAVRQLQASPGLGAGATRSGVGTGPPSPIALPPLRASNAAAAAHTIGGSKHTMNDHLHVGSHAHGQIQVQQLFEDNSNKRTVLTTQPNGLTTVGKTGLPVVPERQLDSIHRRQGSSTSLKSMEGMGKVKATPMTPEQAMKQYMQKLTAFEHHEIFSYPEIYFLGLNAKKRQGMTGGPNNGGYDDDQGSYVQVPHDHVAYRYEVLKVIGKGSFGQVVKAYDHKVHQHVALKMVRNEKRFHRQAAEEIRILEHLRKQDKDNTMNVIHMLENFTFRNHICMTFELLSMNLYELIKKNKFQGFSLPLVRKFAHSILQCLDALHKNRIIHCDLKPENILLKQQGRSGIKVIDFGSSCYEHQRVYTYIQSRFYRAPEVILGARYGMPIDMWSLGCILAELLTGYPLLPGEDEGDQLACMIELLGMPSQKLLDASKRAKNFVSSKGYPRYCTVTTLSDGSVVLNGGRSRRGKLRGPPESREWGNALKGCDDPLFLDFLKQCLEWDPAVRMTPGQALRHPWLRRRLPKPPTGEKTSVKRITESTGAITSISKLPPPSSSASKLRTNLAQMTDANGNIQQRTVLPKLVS
To be noted: 100 μM compound, 50 μM ATP; read-out: Kinase activity, % of activity in the absence of inhibitor. The gist of the method:
(§1)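 Across 117 protein kinases, duplicate in vitro measurements were made with CoA, dpCoA and ADP present at 100 μM final. Each reaction used recombinant kinase, a model substrate and an optimal concentration of ATP.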

A further test deals with T2, TAK1 (Homo sapiens, UniProt O43318).
T2 sequence (O43318 1-303 limits assumed): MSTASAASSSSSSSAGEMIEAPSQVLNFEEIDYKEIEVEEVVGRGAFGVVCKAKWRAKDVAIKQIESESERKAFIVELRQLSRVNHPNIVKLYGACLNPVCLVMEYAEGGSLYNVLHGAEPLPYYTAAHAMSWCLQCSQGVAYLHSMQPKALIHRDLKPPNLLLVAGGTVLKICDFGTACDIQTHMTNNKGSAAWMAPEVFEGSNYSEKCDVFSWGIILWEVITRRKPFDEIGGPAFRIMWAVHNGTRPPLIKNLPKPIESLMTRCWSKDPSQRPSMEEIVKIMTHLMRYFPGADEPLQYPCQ
To be noted: 100 μM compound, 5 μM ATP; read-out: Kinase activity, % of activity in the absence of inhibitor. Summed up:
as §1

The target of a further test is EPH-A2 (Homo sapiens, UniProt P29317). Conditions: 100 μM compound, 50 μM ATP; read-out: Kinase activity, % of activity in the absence of inhibitor. Summed up:
as §1

A further test concerns the target JNK3 (Homo sapiens, UniProt P53779). Conditions: 100 μM compound, 20 μM ATP; read-out: Kinase activity, % of activity in the absence of inhibitor. Summed up: as §1
The target of a further test is T3, p38δ MAPK (Homo sapiens, UniProt O15264).
T3 sequence (O15264 1-365): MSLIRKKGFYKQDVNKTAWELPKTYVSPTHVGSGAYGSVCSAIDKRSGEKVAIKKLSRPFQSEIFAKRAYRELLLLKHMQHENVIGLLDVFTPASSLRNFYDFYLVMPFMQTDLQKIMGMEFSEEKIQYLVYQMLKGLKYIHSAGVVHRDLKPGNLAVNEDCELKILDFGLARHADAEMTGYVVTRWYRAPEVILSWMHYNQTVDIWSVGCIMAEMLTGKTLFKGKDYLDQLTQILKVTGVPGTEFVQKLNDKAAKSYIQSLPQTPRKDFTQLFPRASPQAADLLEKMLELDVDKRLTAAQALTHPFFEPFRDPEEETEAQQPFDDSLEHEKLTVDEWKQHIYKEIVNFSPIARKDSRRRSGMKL
To be noted: 100 μM compound, 5 μM ATP; read-out: Kinase activity, % of activity in the absence of inhibitor. The gist of the method: as §1

For the next test, the target named is MLK3 (Homo sapiens, UniProt Q16584). To be noted: 100 μM compound, 20 μM ATP; read-out: Kinase activity, % of activity in the absence of inhibitor. The gist of the method: as §1
A further test deals with CHK2 (Homo sapiens, UniProt O96017). Conditions: 100 μM compound, 20 μM ATP; read-out: Kinase activity, % of activity in the absence of inhibitor. The gist of the method:
as §1

In a further test the target is T4, TAO1 (Homo sapiens, UniProt Q7L7X3).
T4 sequence (Q7L7X3 1-1001): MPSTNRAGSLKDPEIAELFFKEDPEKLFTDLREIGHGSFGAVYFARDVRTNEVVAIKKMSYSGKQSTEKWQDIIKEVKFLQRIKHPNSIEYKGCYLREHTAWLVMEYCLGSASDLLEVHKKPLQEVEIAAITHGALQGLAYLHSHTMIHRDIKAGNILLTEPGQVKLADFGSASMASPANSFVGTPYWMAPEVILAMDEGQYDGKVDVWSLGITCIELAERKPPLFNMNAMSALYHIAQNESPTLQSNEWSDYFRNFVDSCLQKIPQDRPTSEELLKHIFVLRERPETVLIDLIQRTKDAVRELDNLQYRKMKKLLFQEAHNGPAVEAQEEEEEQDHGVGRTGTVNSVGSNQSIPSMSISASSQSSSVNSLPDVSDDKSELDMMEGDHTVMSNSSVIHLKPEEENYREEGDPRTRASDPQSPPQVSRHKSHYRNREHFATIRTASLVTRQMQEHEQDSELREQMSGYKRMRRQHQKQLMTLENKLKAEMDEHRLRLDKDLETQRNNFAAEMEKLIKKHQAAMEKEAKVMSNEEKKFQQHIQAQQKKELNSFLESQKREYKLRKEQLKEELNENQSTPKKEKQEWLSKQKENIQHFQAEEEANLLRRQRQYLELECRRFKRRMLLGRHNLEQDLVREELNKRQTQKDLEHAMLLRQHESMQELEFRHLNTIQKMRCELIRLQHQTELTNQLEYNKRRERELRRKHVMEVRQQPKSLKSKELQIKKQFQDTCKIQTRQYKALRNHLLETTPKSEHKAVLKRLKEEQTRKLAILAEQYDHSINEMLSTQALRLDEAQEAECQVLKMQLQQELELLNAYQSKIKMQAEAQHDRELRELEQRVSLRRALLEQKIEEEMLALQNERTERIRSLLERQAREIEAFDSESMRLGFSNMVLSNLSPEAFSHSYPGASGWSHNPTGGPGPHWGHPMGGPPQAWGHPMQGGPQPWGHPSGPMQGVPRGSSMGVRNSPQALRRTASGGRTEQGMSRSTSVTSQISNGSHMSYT
To be noted: 100 μM compound, 20 μM ATP; read-out: Kinase activity, % of activity in the absence of inhibitor. The gist of the method:
as §1

Chain of MLK3 (Q16584 whole entry): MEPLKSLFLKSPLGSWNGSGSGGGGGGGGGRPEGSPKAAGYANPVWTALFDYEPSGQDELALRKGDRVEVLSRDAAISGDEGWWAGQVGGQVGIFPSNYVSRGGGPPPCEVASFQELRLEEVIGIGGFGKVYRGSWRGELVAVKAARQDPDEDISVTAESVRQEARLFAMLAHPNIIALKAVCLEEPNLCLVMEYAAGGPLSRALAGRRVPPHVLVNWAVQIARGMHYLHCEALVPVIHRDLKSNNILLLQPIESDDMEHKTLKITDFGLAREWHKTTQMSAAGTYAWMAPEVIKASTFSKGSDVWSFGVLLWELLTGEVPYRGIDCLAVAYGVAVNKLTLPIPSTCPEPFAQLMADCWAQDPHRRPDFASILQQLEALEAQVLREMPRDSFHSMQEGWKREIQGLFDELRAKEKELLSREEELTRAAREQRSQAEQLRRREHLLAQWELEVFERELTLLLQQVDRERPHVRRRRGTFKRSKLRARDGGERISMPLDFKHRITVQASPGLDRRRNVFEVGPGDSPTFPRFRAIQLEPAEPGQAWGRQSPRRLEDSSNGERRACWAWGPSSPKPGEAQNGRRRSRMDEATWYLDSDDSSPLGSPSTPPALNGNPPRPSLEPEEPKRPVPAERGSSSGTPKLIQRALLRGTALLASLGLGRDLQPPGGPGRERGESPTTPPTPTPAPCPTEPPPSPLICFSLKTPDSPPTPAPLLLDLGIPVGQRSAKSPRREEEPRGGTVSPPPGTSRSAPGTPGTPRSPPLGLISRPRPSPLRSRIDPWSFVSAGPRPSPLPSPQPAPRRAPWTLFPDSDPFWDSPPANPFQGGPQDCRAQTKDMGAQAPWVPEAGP
Chain of EPH-A2 (P29317 24-976): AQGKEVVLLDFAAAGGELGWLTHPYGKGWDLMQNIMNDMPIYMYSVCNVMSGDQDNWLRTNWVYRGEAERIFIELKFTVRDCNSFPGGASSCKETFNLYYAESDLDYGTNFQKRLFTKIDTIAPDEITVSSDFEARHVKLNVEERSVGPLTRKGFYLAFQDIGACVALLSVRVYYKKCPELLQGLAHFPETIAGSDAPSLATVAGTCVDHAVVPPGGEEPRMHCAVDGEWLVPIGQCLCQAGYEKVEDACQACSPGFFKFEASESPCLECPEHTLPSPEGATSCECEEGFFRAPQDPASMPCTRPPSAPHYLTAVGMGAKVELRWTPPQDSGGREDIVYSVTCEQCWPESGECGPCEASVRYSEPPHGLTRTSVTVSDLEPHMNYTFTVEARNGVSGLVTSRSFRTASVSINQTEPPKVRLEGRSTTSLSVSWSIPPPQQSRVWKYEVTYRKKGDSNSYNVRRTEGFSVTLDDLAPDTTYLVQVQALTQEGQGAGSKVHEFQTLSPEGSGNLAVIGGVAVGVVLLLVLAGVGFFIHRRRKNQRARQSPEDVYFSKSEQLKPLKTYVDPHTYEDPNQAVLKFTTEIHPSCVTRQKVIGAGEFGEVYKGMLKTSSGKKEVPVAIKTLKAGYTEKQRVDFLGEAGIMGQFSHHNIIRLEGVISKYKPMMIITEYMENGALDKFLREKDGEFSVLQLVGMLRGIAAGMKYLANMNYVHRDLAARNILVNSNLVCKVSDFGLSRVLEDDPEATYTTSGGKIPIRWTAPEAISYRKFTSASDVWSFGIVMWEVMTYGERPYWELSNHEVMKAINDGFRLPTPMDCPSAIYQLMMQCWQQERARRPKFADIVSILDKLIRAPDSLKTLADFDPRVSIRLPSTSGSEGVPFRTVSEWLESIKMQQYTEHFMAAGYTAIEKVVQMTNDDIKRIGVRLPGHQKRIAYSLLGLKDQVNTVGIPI
Chain of JNK3 (P53779 whole entry): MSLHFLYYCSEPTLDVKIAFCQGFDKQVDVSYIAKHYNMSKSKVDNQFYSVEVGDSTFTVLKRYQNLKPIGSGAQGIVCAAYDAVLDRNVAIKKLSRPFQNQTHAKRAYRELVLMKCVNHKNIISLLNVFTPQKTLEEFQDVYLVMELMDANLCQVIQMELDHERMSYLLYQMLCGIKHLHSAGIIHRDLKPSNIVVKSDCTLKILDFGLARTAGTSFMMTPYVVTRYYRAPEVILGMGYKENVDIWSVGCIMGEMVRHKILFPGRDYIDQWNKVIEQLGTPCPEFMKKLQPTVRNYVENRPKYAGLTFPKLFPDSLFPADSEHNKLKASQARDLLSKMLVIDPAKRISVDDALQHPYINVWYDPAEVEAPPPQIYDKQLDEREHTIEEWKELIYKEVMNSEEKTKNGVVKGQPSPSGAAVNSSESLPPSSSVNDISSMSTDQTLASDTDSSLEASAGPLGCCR
Chain of CHK2 (O96017 whole entry): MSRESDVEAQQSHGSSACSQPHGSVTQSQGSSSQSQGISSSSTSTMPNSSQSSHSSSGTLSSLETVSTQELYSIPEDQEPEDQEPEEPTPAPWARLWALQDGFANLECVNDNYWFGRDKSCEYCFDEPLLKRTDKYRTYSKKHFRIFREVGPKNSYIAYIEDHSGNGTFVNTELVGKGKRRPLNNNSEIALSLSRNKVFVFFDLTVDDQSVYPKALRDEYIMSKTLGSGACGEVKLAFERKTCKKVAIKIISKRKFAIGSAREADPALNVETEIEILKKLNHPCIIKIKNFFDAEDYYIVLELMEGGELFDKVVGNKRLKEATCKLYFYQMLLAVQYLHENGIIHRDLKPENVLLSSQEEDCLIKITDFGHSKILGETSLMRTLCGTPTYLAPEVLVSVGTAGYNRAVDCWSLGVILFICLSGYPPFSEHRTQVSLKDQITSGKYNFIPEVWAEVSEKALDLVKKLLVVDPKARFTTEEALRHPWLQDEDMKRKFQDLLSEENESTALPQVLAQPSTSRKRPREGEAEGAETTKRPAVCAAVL

For `CC(C)(COP(=O)(O)OP(=O)(O)OCC1OC(n2cnc3c(N)ncnc32)C(O)C1O)C(O)C(=O)NCCC(=O)NCCS` (stereo not drawn) [dpCoA, dephospho-CoA], the activity at 100 µM at DYRK2 was 77%; on TAK1 it was 79.6%; at EPH-A2 it was 99.2%; at JNK3, 63.2%; on p38δ MAPK it was 71.3%; on MLK3, 61.9%. Also, the activity at 100 µM on CHK2 came out at 56%; on TAO1, 98.3%.
`CC(C)(COP(=O)(O)OP(=O)(O)OC[C@H]1O[C@@H](n2cnc3c(N)ncnc32)[C@H](O)[C@@H]1OP(=O)(O)O)[C@@H](O)C(=O)NCCC(=O)NCCS` [CoA, Coenzyme A]: the activity at 100 µM on DYRK2 turned out to be 102%; on TAK1, 115%; on EPH-A2, 102%; at JNK3, 101%; on p38δ MAPK, 128%; at MLK3, 70.2%. Moreover, the activity at 100 µM on CHK2 worked out at 88.9%; at TAO1, 113%.
`Nc1ncnc2c1ncn2C1OC(COP(=O)(O)OP(=O)(O)O)C(O)C1O` (stereo not drawn) [ADP]: the activity at 100 µM at DYRK2 came to 42.4%; on TAK1, 15.8%; at EPH-A2 it was 45%; on JNK3, 58.6%; at p38δ MAPK, 37.3%; on MLK3 it was 46.8%. Further, the activity at 100 µM on CHK2 is 43.2%; at TAO1, 34%.

Values taken from paper PMC6812009, “Covalent Aurora A regulation by the metabolic integrator coenzyme A” (Redox Biology, 2019).
